PMC12583827, “Harnessing microbial-derived metabolites in the urinary tract to prevent infection induced catheter encrustation” (Nature Communications, 2025)
“Also recorded” adds a separate entry of the source. Structures can show the parent of a compound that is named as a salt. Where two headings read alike, the source gives them in different places.

Legend:
urease operon (ureR) = test system: urease operon (ureR); design: method as in PMID 31921010; settings: cited from earlier work
P. mirabilis urease [1] = target: T1, P. mirabilis urease (Proteus mirabilis, UniProt P17086); type: cell-based; settings: for Urease dampening activity: screen of candidate metabolites, highest concentration tested 20mM, * Trending but not statistically significant
T1 construct: it utilizes whole bacterial cells, rather than isolated enzyme preparations; endogenous in cells; host or cells: Proteus mirabilis HI4320, live whole cells
T1 sequence (P17086 whole entry): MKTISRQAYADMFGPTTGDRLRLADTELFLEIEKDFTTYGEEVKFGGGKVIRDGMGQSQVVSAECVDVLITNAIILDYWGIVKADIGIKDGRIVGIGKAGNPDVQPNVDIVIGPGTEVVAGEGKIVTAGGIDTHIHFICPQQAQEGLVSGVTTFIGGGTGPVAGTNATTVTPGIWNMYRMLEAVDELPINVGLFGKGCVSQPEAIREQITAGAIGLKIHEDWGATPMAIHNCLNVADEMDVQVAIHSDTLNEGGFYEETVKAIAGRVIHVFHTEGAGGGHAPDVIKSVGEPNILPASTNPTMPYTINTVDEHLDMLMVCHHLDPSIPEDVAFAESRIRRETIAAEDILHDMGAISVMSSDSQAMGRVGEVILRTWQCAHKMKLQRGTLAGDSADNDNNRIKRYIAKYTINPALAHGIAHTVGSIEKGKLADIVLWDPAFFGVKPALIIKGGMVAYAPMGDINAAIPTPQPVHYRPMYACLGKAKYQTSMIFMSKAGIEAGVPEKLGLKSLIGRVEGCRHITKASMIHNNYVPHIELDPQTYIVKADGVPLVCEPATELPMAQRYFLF
T1 sequence (P17088 whole entry, further chain): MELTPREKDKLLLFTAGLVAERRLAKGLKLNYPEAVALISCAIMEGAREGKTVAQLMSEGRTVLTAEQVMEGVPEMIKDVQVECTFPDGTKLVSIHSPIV
T1 sequence (P17087 whole entry, further chain): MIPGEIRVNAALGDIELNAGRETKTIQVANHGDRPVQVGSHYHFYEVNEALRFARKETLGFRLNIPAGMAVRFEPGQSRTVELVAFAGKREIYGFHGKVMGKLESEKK
Method: (§1) Urease activity was measured as described previously in triplicate with at least three biological replicates[21]. Briefly, bacteria were cultured for ~18 h in LB broth, concentrated to an OD600 of 4, washed once in saline, and diluted (1:10 for P. mirabilis and 1:50 for P. stuartii and M. morganii) into candidate dampening metabolites in potassium phosphate buffer or human urine pH7 and supplemented with 500 mM urea and 0.01% phenol red. Bacterial suspensions were distributed into a 96-well plate, incubated at 37 °C with double-orbital shaking in a Synergy H1 plate reader (BioTek), and absorbance (OD562) was measured every 60 seconds for 180 minutes. Isogenic urease mutants (Supplementary Data 1) served as negative controls for P. mirabilis and P. stuartii and a vehicle control served as a negative control for M. morganii.

[2] = target: T2, urease of P. mirabilis HI4320 cell free extracts (Proteus mirabilis, UniProt P17086); type: biochemical
T2 construct: 20ul of cell-free extract were distributed into a 96-well plate in place of the whole cell bacterial suspensions; endogenous in cells; host or cells: Proteus mirabilis HI4320, urea-induced; freeze-thaw and sonication lysate, clarified supernatant
T2 sequence (P17088 whole entry): as the sequence (P17088 whole entry, further chain) above
T2 sequence (P17086 whole entry): as the sequence (P17086 whole entry) above
T2 sequence (P17087 whole entry, further chain): as the sequence (P17087 whole entry, further chain) above
Method: To measure urease activity of the cell free extracts of P. mirabilis, P. mirabilis was cultured for ~18 h in LB broth and then sub cultured until it reached mid-log growth phase (OD600 0.2-0.5). Cultures were spun down to pellet at 10,000 rcf for 10 minutes and resuspended in saline to a final OD600 of 1.0. Cultures were then diluted 1:10 in potassium phosphate buffer pH7 supplemented with 500 mM urea and incubated at 37 °C with shaking for 1 h to induce its urease enzyme production. The isogenic urease mutant Pm ureF::kan (Supplementary Data 1) served as negative control. Cultures then were spun down to pellet at 10,000 rcf for 10 minutes and resuspended in 2 mL saline. Cultures were subjected to four cycles of freezing in liquid nitrogen and thawing in a 37 °C water bath. Cultures were then probe sonicated (on ice) at 25% amplitude for 10 sec. Sonicated cultures were centrifuged at 18,900 Xg for 5 min and supernatants were transferred to a clean tube and stored on ice. To measure urease activity of cell free extracts, the previously described assay was modified such that 20ul of cell-free extract were distributed into a 96-well plate in place of the whole cell bacterial suspensions. Acetohydroxamic acid (AHA), was used as a positive control. Percent of maximum urease activity was calculated using Area Under the Curve (AUC) relative to untreated cell free extracts of P. mirabilis.

Jack Bean Urease (JBU) = target: T3, Jack Bean Urease (JBU) (Canavalia ensiformis, UniProt P07374); type: biochemical; settings: 0.1 U JBU, 500 mM urea
T3 construct: purchased Sigma-Aldrich
T3 sequence (P07374 whole entry, looked up): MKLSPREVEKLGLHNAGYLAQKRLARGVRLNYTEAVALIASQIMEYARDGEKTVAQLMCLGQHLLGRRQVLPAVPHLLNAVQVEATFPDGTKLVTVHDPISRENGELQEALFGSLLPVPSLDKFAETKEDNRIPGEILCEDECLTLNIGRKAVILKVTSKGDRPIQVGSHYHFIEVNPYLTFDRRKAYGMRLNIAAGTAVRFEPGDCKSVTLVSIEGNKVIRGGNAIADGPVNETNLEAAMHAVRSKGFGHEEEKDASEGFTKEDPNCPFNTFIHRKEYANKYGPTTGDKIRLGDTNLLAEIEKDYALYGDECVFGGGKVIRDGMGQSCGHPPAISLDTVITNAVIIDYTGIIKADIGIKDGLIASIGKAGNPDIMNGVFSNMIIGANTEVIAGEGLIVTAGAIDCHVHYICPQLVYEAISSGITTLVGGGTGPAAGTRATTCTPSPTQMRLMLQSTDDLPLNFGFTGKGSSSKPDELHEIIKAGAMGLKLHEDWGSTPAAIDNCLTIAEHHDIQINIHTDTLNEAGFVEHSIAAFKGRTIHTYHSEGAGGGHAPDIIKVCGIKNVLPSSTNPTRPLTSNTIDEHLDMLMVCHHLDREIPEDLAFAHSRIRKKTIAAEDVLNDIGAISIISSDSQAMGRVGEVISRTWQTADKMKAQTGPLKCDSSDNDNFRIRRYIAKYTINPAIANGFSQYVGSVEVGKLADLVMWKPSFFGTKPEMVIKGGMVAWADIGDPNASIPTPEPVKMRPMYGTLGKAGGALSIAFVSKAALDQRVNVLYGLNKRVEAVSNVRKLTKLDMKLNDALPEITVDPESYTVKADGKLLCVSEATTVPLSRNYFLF
Method: To measure Jack Bean urease activity, the previously described assay was modified such that 0.1 U (1U liberates 1 µmol of ammonia from urea per minute) of JBU (Sigma-Aldrich urease from Canavalia ensiformis) were distributed into a 96-well plate in place of the bacterial suspensions. Acetohydroxamic acid (AHA), was used as a positive control and a vehicle control was used as a negative control. Percent of maximum urease activity was calculated using Area Under the Curve (AUC) relative to untreated bacteria of interest or untreated JBU. Urease activity measurement in MRSA was adapted from a recently published semi quantitative assay (See Supplementary materials for details)[48].
414 Supplementary Figure 13. Microbial metabolites dampen activity of purified Jack Bean
415 Urease (JBU). 0.1 U of JBU (1U liberates 1 µmol of ammonia from urea per minute) was
416 incubated at 37 °C with shaking in urease-dampening metabolites, 500mM urea, and phenol red.
417 A urea analogue, AHA, served as the positive control for inhibition of JBU. Absorbance
418 (OD562) was measured every 60 seconds for 90 minutes, and activity is expressed as percent of
419 maximum activity (% Max Activity) relative to untreated JBU. Graphs show mean±SD for 3
420 independent experiments with 3 technical replicates each. Data were analyzed by two tailed one
421 sample t-test to a hypothetical value of 100% activity. ***P<0.001, **P<0.002, *P<0.033.
(1 picture or pasted object on this page, not shown here)

[3] = target: T4, urease of P. mirabilis cell free extracts (Proteus mirabilis, UniProt P17086); type: biochemical
T4 construct: 20ul of cell-free extract were distributed into a 96-well plate in place of the whole cell bacterial suspensions; endogenous in cells; host or cells: Proteus mirabilis HI4320, urea-induced; freeze-thaw and sonication lysate, clarified supernatant
T4 sequence (P17086 whole entry): as the sequence (P17086 whole entry) above
T4 sequence (P17088 whole entry, further chain): as the sequence (P17088 whole entry, further chain) above
T4 sequence (P17087 whole entry, further chain): as the sequence (P17087 whole entry, further chain) above
Method: For the kinetic analysis of the urease reaction in the presence of urease dampening metabolites, urease activity assays were repeated with the P. mirabilis cell free extracts. Six different inhibitor concentrations that gave linear rates of reaction over a period of 120 min were tested for their effects on urease activity in the presence of urea concentrations ranging from 0 to 500 mM. Simple linear regression was performed on the absorbance (OD562) over 120 minutes for each condition and plotted as Initial velocity (slope) vs urea concentration. These initial hyperbolic plots were converted to double-reciprocal Lineweaver-Burke plots, and the pattern of inhibition inferred from the point of intersection of the lines. Finally, the Ki for a particular compound was determined by plotting the Km/Vmax ratio (the slope of the Lineweaver-Burke plots) of each line as a function of the inhibitor concentration as described by ref. [49]. The X-intercept corresponded to –Ki.

[4] = Buffering capacity assay (NaOH titration, phenol red); type: physicochemical; settings: high concentrations of metabolite in potassium phosphate buffer with phenol red
Method: Known concentrations of sodium hydroxide were added to each well of a 96 well plate in combination with candidate dampening metabolite of interest buffered 1:10 in potassium phosphate buffer pH7. 0.01% phenol red was added to each well, and absorbance (OD562) was measured in a Synergy H1 plate reader (BioTek).

P. mirabilis urease [5] = target: T1, P. mirabilis urease; type: cell-based; settings: for Compound 1 %I alone: kphos
Method: To assess the synergistic effects of dampening metabolites when used in combination with each other, P. mirabilis urease activity was measured as described above. Between 4-6 different concentrations for each dampening metabolite were tested both alone and in combination (See Fig. 6a for example). […] To account for variability between experiments, all conditions tested were performed on a single 96-well plate with three technical replicates for each condition. To compare between biologic replicates, percent inhibition relative to untreated P. mirabilis was calculated for each condition using the average area under the curve over 120-180 minutes (so that the positive control activity curve saturated without any increase in the negative control curve).
Statistical analysis was conducted using a one sample T test of the combination index compared to a hypothetical value of 1 (additive effect). […] Therefore, combination indexes were calculated using a desired effect size less than 40% were indicated with an * in Fig. 6b and in Supplementary Data 5.

[6] = test system: Helicobacter pylori urease; design: method as in earlier work; settings: cited from earlier work
P. mirabilis urease [7] = test system: P. mirabilis urease; design: method as in PMID 8494373; settings: limited concentrations tested; cited from earlier work
[8] = test system: P. mirabilis catheter biofilms; experiment: Antibiotic testing in the in vitro “bladder” model; type: cell-based, Proteus mirabilis; settings: 1ug/mL ceftriaxone added at 24 h
Method: The glass “bladder” system assembly, inoculation and sample collection were performed as described above. At 24 h post inoculation glass “bladders” were supplied with media containing the same metabolite (or AUM only control) with or without 1 µg/mL ceftriaxone sodium salt hydrate (Cayman Chemical Company, Michigan, USA). Samples were then collected from the catheter port at 27, 30, 33, 36 and 48 h to monitor pH and bacterial CFUs. After 48 h, the catheters were carefully removed, sectioned and assessed for bacterial viability as detailed in Supplementary Methods.

[9] = test system: P. mirabilis urease operon (ureABC, ureEDF); experiment: Real-time quantitative PCR of urease operon; type: cell-based, Proteus mirabilis; settings: 15-minute incubation, 500 mM urea
Method: P. mirabilis was cultured for ~18 h in LB broth and then sub cultured until it reached mid-log growth phase (OD600 0.2-0.5). Cultures were spun down to pellet at 10,000 rcf for 10 minutes and resuspended in saline to a final OD600 of 1.0. Cultures were then diluted 1:10 into dampening metabolites buffered 1:10 in potassium phosphate buffer pH7 and supplemented with 500 mM urea. P. mirabilis in potassium phosphate buffer without urea served as a negative control. Cultures were incubated in potassium phosphate buffer with and without dampening metabolites at 37 °C with shaking for 15 minutes. RNA isolation, cDNA synthesis and RT qPCR were performed as described previously. […] A RNA integrity analysis using agarose gel electrophoresis on extracted RNA was performed for all samples to confirm no change in transcript stability (Supplementary Fig 16A). The data were analyzed according to the Relative Quantification (RQ) method by Pfaffl et al. 2001[54] (See Supplementary Information).
168 Real-time quantitative PCR analysis. The data were analyzed according to the Relative
169 Quantification (RQ) method by Pfaffl et al 2001 (56) in which P. mirabilis potassium phosphate
170 buffer without urea was considered as the ‘Control’ and P. mirabilis in potassium phosphate
171 buffer supplemented with 500mM urea with and without candidate dampening compounds were
172 the ‘Sample.’ The full equation is below.
(E )ΔCPtarget (control−sample)
174 Relative Quantification Ratio = target Equation 2
(Ereference)ΔCPreference (control−sample)
176 In this equation, E refers to the primer efficiency of the target gene (Etarget, urease operon
177 subunits) or the reference gene (Ereference, rpoA), and CP refers to the Cycle Point, or the cycle
178 number at which the signal exceeds the threshold. […]
183 for whole genome sequencing on the Illumina NextSeq2000 platform. Read trimming, and run
184 analytics were performed using Trimmomatic v0.39.0 (62). The processed reads were assembled
185 using spades v3.15.5 (63) wrapped in Unicycler v0.5.0 (64, 65). Read mapping was done using […]

M. morganii urease = experiment: Urease activity assay, whole cell M. morganii TA43; type: cell-based, Morganella morganii
Method: as §1

P. stuartii urease = experiment: Urease activity assay, whole cell P. stuartii BE2467; type: cell-based, Providencia stuartii
Method: as §1

UTI MRSA urease = UTI MRSA urease activity assay; type: cell-based, Staphylococcus aureus; settings: whole cell, urease broth
Method: 190 Omega and visualization was carried out using ESPript 3.0 (69), enabling comparison across
191 different clinical isolates. Urease genes, including the full operon from ureA to ureR, were
192 identified and extracted from the prokka annotated genomes. The extracted protein sequences
193 were subjected to sequence alignment using Clustal Omega and visualization was carried out
194 using ESPript 3.0 [8], enabling comparison across different clinical isolates.
195 UTI MRSA urease activity assay. The UTI MRSA urease assay was adapted from a recently-
196 published semi quantitative assay to measure urease activity in bacterial species with low overall
197 activity under standard conditions (50). Dampening metabolites were directly dissolved in urease
198 broth (1 g tryptone (RPI; CAS No. 91079-40-2), 1 g D(+)-glucose (RPI; CAS No. 50-99-7), 2 g
199 potassium phosphate monobasic anhydrous (VWR; Lot: 20C1356567), 5 g sodium chloride
201 of MilliQ water, pH 5.5, sterilized via autoclaving). UTI MRSA strains from overnight cultures
202 were harvested by centrifugation for 5 minutes at 10,000 g, washed with 1 volume of 1X
203 Phosphate Buffered Saline (PBS), and resuspended in urease broth. Bacterial cultures were […]
205 measured at 415 nm, 560 nm, and 600 nm every 20 mins for 24 hours, shaking at 37°C using a
206 BioTek Synergy|H1 microtiter plate reader. Urease activity was calculated by dividing the OD […]

2-Hydroxy-4-methoxybenzaldehyde
urease operon expression (urease operon (ureR)): reduce urease operon expression

O=C(O)[C@@H](O)Cc1cnc[nH]1 [L-imidazole lactate, L-imidazolelactic acid]
Urease dampening activity (P. mirabilis urease [1]): Yes | urease activity of cell free P. mirabilis extracts [2]: at least partially inhibiting | JBU activity (Jack Bean Urease (JBU)): inhibited | change of estimated Km on addition of metabolite [3]: increase | change of estimated Vmax on addition of metabolite [3]: decrease | type of urease inhibition ([3]; Michaelis-Menten parameters, Lineweaver-Burke plot): mixed inhibitors | buffering capacity: absorbance (OD562) across NaOH concentrations [4]: consistent reduction in absorbance compared to the control | Compound 1 %I alone (P. mirabilis urease [5]; Compound 1 [] alone 25, assay date 2024 08 07): 36.6% | Compound 1 %I alone (P. mirabilis urease [5]; Compound 1 [] alone 37.5, assay date 2024 08 09): 56.9% | Compound 1 %I alone (P. mirabilis urease [5]; Compound 1 [] alone 50, assay date 2024 08 07): 58.1%

COc1ccc2[nH]c([S+]([O-])Cc3ncc(C)c(OC)c3C)nc2c1 (stereo not shown) [Omeprazole]
Helicobacter pylori urease activity [6]: inhibit | P. mirabilis urease activity (P. mirabilis urease [7]): did not inhibit

CO/N=C(\C(=O)N[C@@H]1C(=O)N2C(C(=O)O)=C(CSc3nc(=O)c(=O)[nH]n3C)CS[C@H]12)c1csc(N)n1 [ceftriaxone, ceftriaxone sodium salt hydrate]
AUM pH compared to the control “bladder” [8]: no impact on pH | reduction in CFU/mL by the end of the experiment ([8]; effluent, 48 h): 3 log

Cc1c(OCC(F)(F)F)ccnc1C[S+]([O-])c1nc2ccccc2[nH]1 (stereo not shown) [lansoprazole]
Helicobacter pylori urease activity [6]: inhibit | P. mirabilis urease activity (P. mirabilis urease [7]): did not inhibit

O=C(O)C(=O)Cc1ccccc1 [phenylpyruvate, Sodium phenylpyruvate monohydrate]
effect on P. mirabilis urease activity (whole cell) (P. mirabilis urease [1]; potassium phosphate buffer, dose response): reproducibly decreased; also recorded: only modest activity | Urease dampening activity (P. mirabilis urease [1]): Yes | JBU activity (Jack Bean Urease (JBU)): did not inhibit; also recorded: no activity | ureE and ureF transcript levels [9]: modestly increased | urease activity in M. morganii (M. morganii urease): no activity | urease activity in P. stuartii (P. stuartii urease): no activity | urease activity in MRSA (UTI MRSA urease): most potent urease inhibition | concentrations required to achieve a significant combination index (P. mirabilis urease [5]): > 50 mM
